Ki data for one compound are collected here from patent publication US7709492B2, “Pyrazolo-[4,3-e]-1,2,4-triazolo-[1,5-c]-pyrimidine adenosine A2a receptor antagonists” (Schering Corporation, priority 2004, dated 2010).

Each structure is given as a SMILES string.

The target of the experiment is T1, Human A2a Adenosine Receptor (Homo sapiens, UniProt P29274).
T1 construct: purchased Receptor Biology, Inc., Beltsville, Md; RB-HA2a
The experiment in a line: Human adenosine A2a receptor competition binding assay. The note with it: [3H]-SCH 58261 displacement, human A2a membranes. As to the method: Human Adenosine A2a and A1 Receptor Competition Binding Assay Protocol
A2a: Human A2a Adenosine Receptor membranes, Catalog #RB-HA2a, Receptor Biology, Inc., Beltsville, Md. Dilute to 17 μg/100 μl in membrane dilution buffer (see below).
Membrane dilution buffer: Dulbecco's Phosphate Buffered Saline (Gibco/BRL)+10 mM MgCl2.
Compound Dilution Buffer: Dulbecco's Phosphate Buffered Saline (Gibco/BRL)+10 mM MgCl2 supplemented with 1.6 mg/ml methyl cellulose and 16% DMSO. Prepared fresh daily.
A2a: [3H]-SCH 58261, custom synthesis, AmershamPharmacia Biotech, Piscataway, N.J. Stock is prepared at 1 nM in membrane dilution buffer. Final assay concentration is 0.5 nM.
A2a: To determine non-specific binding, add 100 nM CGS 15923 (RBI, Natick, Mass.). Working stock is prepared at 400 nM in compound dilution buffer.
Prepare 1 mM stock solutions of compounds in 100% DMSO. Dilute in compound dilution buffer. Test at 10 concentrations ranging from 3 μM to 30 pM. Prepare working solutions at 4× final concentration in compound dilution buffer.
Perform assays in deep well 96 well plates. Total assay volume is 200 μl. Add 50 μl compound dilution buffer (total ligand binding) or 50 μl CGS 15923 working solution (A2a non-specific binding) or 50 μl, NECA working solution (A1 non-specific binding) or 50 μl of drug working solution. Add 50 μl ligand stock ([3H]-SCH 58261 for A2a, [3H]-DPCPX for A1). […]

T1 sequence (P29274 whole entry): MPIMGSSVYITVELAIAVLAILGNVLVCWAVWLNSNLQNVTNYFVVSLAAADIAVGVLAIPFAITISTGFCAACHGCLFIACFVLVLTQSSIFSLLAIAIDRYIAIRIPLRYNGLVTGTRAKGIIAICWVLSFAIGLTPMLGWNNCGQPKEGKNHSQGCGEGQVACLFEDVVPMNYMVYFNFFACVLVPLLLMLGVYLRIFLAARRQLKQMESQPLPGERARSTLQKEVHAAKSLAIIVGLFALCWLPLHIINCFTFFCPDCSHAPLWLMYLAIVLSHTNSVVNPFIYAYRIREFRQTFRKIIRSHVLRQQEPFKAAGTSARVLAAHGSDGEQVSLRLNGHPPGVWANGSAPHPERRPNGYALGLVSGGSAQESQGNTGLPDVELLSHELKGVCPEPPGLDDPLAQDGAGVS

Usually Ki stands for a measure of affinity in units of concentration, obtained from inhibition or displacement. Read a high Ki as a looser hold on the target. In turn, `Nc1nc2c(cnn2CCN2CCN(c3cc(-c4ncco4)ccc3F)CC2)c2nc(-c3ccccn3)nn12` [Example 12-31] gave a Ki of 0.3 nM.
